The values that follow come from patent US20260223847A1, “Compounds for Increasing Frost Tolerance in Plants” (VIB VZW, priority 2023, published 2026).

Holding throughout (format): in vivo
The test system of experiment [1] is Arabidopsis Col-0 seedlings. Put plainly: Arabidopsis hypocotyl elongation (growth) assay. The conditions noted are these: long day (LD: 16/8 h) conditions. As to the method:
FIG. 1: Left: hypocotyl length of Arabidopsis Col-0 seedlings germinated on solid ½MS medium for 4 days and then transferred for 3 more days to liquid ½MS supplemented with a range of concentrations of A68. Right: primary root length of Arabidopsis Col-0 seedlings grown on solid ½MS medium supplemented with a range of concentrations of A68 for 12 days. FIG. 2: Effects of A68 and its related variants on the Arabidopsis hypocotyl elongation. Arabidopsis seedlings were grown on solid ½MS medium for 4 days and then transferred for 3 more days to liquid ½ MS supplemented with the studied compounds at either 0.5 or 50 μM final concentration. Hypocotyl length is represented relative to that of mock-treated seedlings from the same biological repeats. n>400 seedlings for DMSO and A68 initial hit (control treatments throughout the experiments), n>30 seedlings for the A68 variants. Student's two-sample t-test, *P<0.05, **P<0.01 and ***P<0.001. FIG. 3: Hypocotyl elongation dose-response curves for A68 and three bioactive variants A68-6, A68-8 and A68-53 showing the half-maximum effective concentration EC50. A bioactive compound, herein further designated as A68, was identified by screening a commercial 10,000 compound library (DIVERSet, ChemBridge Corporation) for hypocotyl elongation phenotype at a final concentration of 50 μM in 2% DMSO. […]

Experiment [2] relates to Arabidopsis Col-0 seedlings. In words: Arabidopsis primary root growth / lateral root number. The conditions noted are these: long day (LD: 16/8 h) conditions. The text has this:
FIG. 1: Left: hypocotyl length of Arabidopsis Col-0 seedlings germinated on solid ½MS medium for 4 days and then transferred for 3 more days to liquid ½MS supplemented with a range of concentrations of A68. Right: primary root length of Arabidopsis Col-0 seedlings grown on solid ½MS medium supplemented with a range of concentrations of A68 for 12 days. A bioactive compound, herein further designated as A68, was identified by screening a commercial 10,000 compound library (DIVERSet, ChemBridge Corporation) for hypocotyl elongation phenotype at a final concentration of 50 μM in 2% DMSO. A68 promotes hypocotyl elongation, while suppresses primary root growth but increases lateral root number under long day (LD: 16/8 h) conditions (see FIG. 1).

A further experiment relates to Arabidopsis seedlings. In words: Osmotic stress tolerance in Arabidopsis seedlings (sorbitol). The conditions noted are these: low concentrations; ½MS with sorbitol. On the procedure: FIGS. 4A-4D: Effect of A68 and its variant A68-6 on Arabidopsis growth in osmotic stress conditions. The two compounds were tested at 3 different concentrations in ½MS without sucrose supplemented with 100 mM sorbitol. The extent of stress tolerance in presence of the small molecules was estimated by following the rosette size (FIG. 4A) as well as root related parameters, such as the total (FIG. 4B) and main (FIG. 4C) root length and lateral root number (FIG. 4D). Results are presented relative to the mock-treated control (0.005% DMSO). FIGS. 5A-5D: Effect of A68-6 on Arabidopsis growth in osmotic stress conditions. The compound was tested at 3 different concentrations in ½MS without sucrose supplemented with 200 mM sorbitol. The extent of stress tolerance in presence of the small molecules was estimated by following the rosette size (FIG. 5A) as well as root related parameters, such as the total (FIG. 5B) and main (FIG. 5C) root length and lateral root number (FIG. 5D). Results are presented relative to the mock-treated control (0.005% DMSO).

In experiment [3] the test system is Strawberry, Fragaria ananasa, cv. Elsanta. In words: Efficacy trial against frost damage on strawberry (trial 22.RM.SAB.028). The text has this:
Preparation of the agronomical formulation: compound A68 is suspended in acetone at a concentration of 1 g/l. Further in this example this suspension is designated as 22.SC.040.
Trial setup: Strawberry, Fragaria ananasa, tray plants cv. Elsanta were planted in P13 pots, 1 plant per pot. The used substrate was a standard strawberry-substrate with addition of 180 g Osmocoat/651 substrate. (Osmocoat 18-5-11+4CaO+2MgO Agroblen 3-4 months).
36 plants (6 objects×6 repetitions) were randomly placed on tables with eb-flood system (21 l/2.5 m2 during 10 minutes, 2×/24 hours) in the greenhouse (22° C./10° C. day/night; 50% RH).
Foliar applications were executed in a standardized spraying cabin. A nozzle (Albuz TVI, color green) moved over the plants with a constant speed, simulating a spraying volume of 300l/ha.
At full bloom of the first flower branch, these branches were marked with a plastic strip. The plants were placed on pallets and enter a fridge at 5° C. during night, to decrease warmth in the substrate and chill the plants. The next morning, the plants were moved from the fridge to a freezing container. […]
One day and one week after frost, the flowers on the marked branches were assessed. […]
When the fruits ripen, the ripe fruits were picked. […] Also, the number of fruits were counted and the weight was measured. […]

SMILES strings stand for the structures.

Turning to `Cc1cccc(C(=O)Nc2ccc(Oc3ccc4c(c3)C(=O)NC4=O)cc2)c1` [Compound A68, N-(4-((1,3-dioxoisoindolin-5-yl)oxy)phenyl)-3-methylbenzamide], the hypocotyl elongation result in experiment [1] is listed as “promotes”. Also, in experiment [2], the lateral root number entry is on record as “increases” and the primary root growth entry is “suppresses”. Also, the “tolerance to mild osmotic stress” value in the experiment on Arabidopsis seedlings is listed as “enhance tolerance”. Besides, in experiment [3] (A68 suspended in acetone, foliar spray), the “efficacy to decrease frost damage on strawberry” value is given as “clear indications of efficacy”. In experiment [3] (maximum efficacy of the Gauss-curve), the optimal dose-rate result is “around 1000 mg/ha”.
